Series [1] relates to mice. Briefly: central nervous system toxicity observation in mice (ataxia, convulsions, loss of righting reflex, death). The format is in vivo, mouse (female Swiss albino, Ham/ICR). The settings on record: for Toxicity: Death (number of mice) / Toxicity: Ataxia (number of mice) / Toxicity: Con. (Convulsions) (number of mice) / Toxicity: LRR (Loss of righting reflex) (number of mice): 100 mg/kg s.c., 10 mice; for Toxicity: Ataxia (number of mice) / Toxicity: Con. (Convulsions) (number of mice) / Toxicity: LRR (Loss of righting reflex) (number of mice): 20 min observation; for toxicity (in words): mice. The method, then:
(§1) Ventricular fibrillation was produced in female Swiss albino mice (Ham/ICR weighing 18-25g.) essentially according to the method described by Lawson in J. Pharm, Exp. Therap. 160, 22 (1968).
(§2) For initial evaluation of antiarrhythmic activity and toxicity of test compounds, a dose of 100 mg/kg (calculated for the base form, 1% solution in 0.9% saline, adjusted to pH 6-7) was administered subcutaneously to a group of 10 non-fasted, randomly selected mice. […] After 20 minutes they were exposed to chloroform vapors and tested for protection against fibrillation.

Series [2] relates to chloroform-induced ventricular fibrillation. Briefly: protection against chloroform-induced ventricular fibrillation in mice. Particulars: for ED50: Mus musculus, sc, read-out: ED50 for protecting against fibrillation; for antiarrhythmic activity (in words): chloroform fibrillation; for relative Potency (molar basis): ED50^-1 in mmol/kg, standardized to compound 1 = 1. The format is in vivo, mouse (female Swiss albino, Ham/ICR). The method, then:
as §1
The mice were placed individually into a 2,000 ml. beaker with cotton and 50 ml. of chloroform. Immediately after cessation of respiration the mouse was removed from the beaker, the thorax opened and the heart examined for the presence or absence of ventricular fibrillation. Each heart was stimulated by touching with forceps, and the nature of the cardiac rhythm was noted and confirmed by electrocardiographic recordings. The heart was considered to be fibrillating if fine tremulous movements were present on the surface of the ventricle and persisted for at least five seconds after the mechanical stimulus. Ventricular fibrillation was considered absent in those animals in which coordinated ventricular activity was evident following such procedures.
as §2
For determination of ED50 and relative potency of the compounds, three log-spaced doses of drug were selected to give a low, intermediate, and high degree of protection against fibrillation. Each dose was administered to 10 mice.
The data obtained from the three point assay was computer-analyzed using Berkson's minimum logit chi square analysis. The program was designed to give ED50 values with 95 percent Fieller limits.

The test system of series [3] is ventricular arrhythmias in coronary ligated dogs. Briefly: coronary ligated dogs, antiarrhythmic effect and toxicity, intravenous infusion (Harris procedure). The series is classed as in vivo, dog. The settings on record: for Mean Arterial Blood Pressure, values after administration / Ventricular Rate, values after administration: i.v. infusion 0.5 mg/kg/minute. On the procedure:
(§3) Further confirmation of the superiority of the secondary amine compound was provided by comparison of the secondary and tertiary amines in tests on coronary ligated dogs. The tests were conducted in accordance with the procedure of Harris given in Circulation, 1, 1318, 1950. The drugs were administered by the intravenous route by infusion at a dosage of 0.5 mg./kg./minute, in a volume of 0.97 ml./minute and a concentration of 5.2-4.3 mg/ml. The animals were weighed and the solutions prepared on the day of the experiment.

Assay in series [4]: as above
The format is in vivo, dog. The settings on record: dog, in vivo, iv. On the procedure:
as §3

Series [5] has as its system mice. Briefly: central nervous system toxicity observation in mice (ataxia, convulsions, loss of righting reflex, death). The series is classed as in vivo, mouse (female Swiss albino, Ham/ICR). Particulars: 138 mg/kg s.c., 10 mice.
The test system of series [6] is heart. Particulars: cited from earlier work.
Series [7] deals with central nervous system. Particulars: metabolite of lidocaine, high doses of lidocaine; cited from earlier work.
[8] abbreviates: mice, three log-spaced doses, 10 mice each, 95% Fieller limits in brackets.

For orientation: ED50 means the dose that gives a 50% effect, or the effect in half of the subjects.

Molecules are shown by their SMILES. Several values for one entry are separate records, joined by “and”; a condition that tells them apart may be missing. Identical values can stand only once. Entries after “also recorded” stand apart in the source; their conditions may differ. Like-named read-outs stand apart in the source and are kept apart here.

Consider `CCN(CC)CC(=O)Nc1cc(OC)c(OC)cc1Cc1nccc2cc(OC)c(OC)cc12` [Compound 1], for which, in series [1], the “Toxicity: Death (number of mice)” value is reported as 0, the “Toxicity: Ataxia (number of mice)” value is 0, the “Toxicity: Con. (Convulsions) (number of mice)” value (“Toxicity: Con. (Convulsions)” below) was 0 and the “Toxicity: LRR (Loss of righting reflex) (number of mice)” value (“Toxicity: LRR (Loss of righting reflex)” below) is recorded as 0. The “toxicity (in words)” value in series [1] is on record as “decreased the central nervous system toxicity”. Further, the ED50 in series [2] (setting [8]) was determined as 211 mg/kg. The “antiarrhythmic activity (in words)” value in series [2] (mice) is reported as “increased the antiarrhythmic activity”.
`CCNCC(=O)Nc1cc(OC)c(OC)cc1Cc1nccc2cc(OC)c(OC)cc12` [Compound 2]: in series [1], the “Toxicity: Death (number of mice)” value is 0, the “Toxicity: Ataxia (number of mice)” value stood at 9, the “Toxicity: Con. (Convulsions)” value was 0 and the “Toxicity: LRR (Loss of righting reflex)” value was 0. In addition, the “toxicity (in words)” value in series [1] was “toxicity symptoms; also recorded: higher toxicity”. Besides, the “relative Potency (molar basis)” value in series [2] is on record as 1. Moreover, the ED50 in series [2] (setting [8]) was 142 mg/kg. Besides, in series [2] (mice), the “antiarrhythmic activity (in words)” value is “comparable protection against fibrillation at the same test dose”.
On to `CCN(CC)CC(=O)Nc1c(Cc2nccc3ccccc23)ccc(OC)c1OC` [Compound 3], for which, in series [1], the “Toxicity: Death (number of mice)” value is given as 0, the “Toxicity: Ataxia (number of mice)” value is listed as 0, the “Toxicity: Con. (Convulsions)” value is recorded as 0 and the “Toxicity: LRR (Loss of righting reflex)” value is 0. Further, the “toxicity (in words)” value in series [1] was “lower toxicity”. Further, the “abolishing severe arrhythmias (in words)” value in series [3] (coronary ligated dogs, i.v.) is reported as “effective in abolishing severe arrhythmias”. For the same molecule, in series [3] (dog), the “Mean Arterial Blood Pressure, values after administration” value is 100 and 90; the “Ventricular Rate, values after administration” value is 153 and 135. Also, in series [3] (dog, in vivo, iv), the “Dose Producing Toxicity (profound head tremors)” value came to 6.25 mg/kg. In addition, in series [4] (Dose Producing Toxicity (convulsion)), the dose producing toxicity was 15.8 mg/kg. This molecule came in with a dose producing toxicity in series [4] (Dose Producing Toxicity (profound head tremors)) of 12.5 mg/kg. The “relative Potency (molar basis)” value in series [2] came out at 1. For the same molecule, the median effective dose (ED50) in series [2] (setting [8]) amounted to 146 mg/kg. In series [2] (mice), the “antiarrhythmic activity (in words)” value is reported as “greater antiarrhythmic activity”.
Regarding `CCNCC(=O)Nc1c(Cc2nccc3ccccc23)ccc(OC)c1OC` [Compound 4, 1-(2-[2-ethylamino-acetyl]amino-3,4-dimethoxybenzyl)isoquinoline], in series [1], the “Toxicity: Death (number of mice)” value was determined as 0, the “Toxicity: Ataxia (number of mice)” value stood at 0, the “Toxicity: Con. (Convulsions)” value stood at 0 and the “Toxicity: LRR (Loss of righting reflex)” value is 0. Moreover, in series [3] (coronary ligated dogs, i.v.), the “abolishing severe arrhythmias (in words)” value was “effective in abolishing severe arrhythmias”; the “central nervous system and cardiovascular toxicity at effective doses (in words)” value is “free from indications of central nervous system and cardiovascular toxicity”. Further, in series [3] (dog, i.v. infusion), the “dose producing toxicity” value is listed as “(c)”. Also, in series [3] (dog), the “Mean Arterial Blood Pressure, values after administration” value was 125 and 85; the “Ventricular Rate, values after administration” value is 147 and 123. In series [2], the “relative Potency (molar basis)” value amounted to 3. Further, the ED50 in series [2] (setting [8]) is 54 mg/kg. Also, the “antiarrhythmic activity (in words)” value in series [2] (mice) is “markedly higher antiarrhythmic potency than both its tertiary amine congener, compound 3, and lidocaine”.
On to `COc1ccc(Cc2nccc3ccccc23)c(NC(=O)C(C)N)c1OC` (stereo not drawn) [Compound 5], for which, in series [1], the “Toxicity: Death (number of mice)” value worked out at 0, the “Toxicity: Ataxia (number of mice)” value is recorded as 0, the “Toxicity: Con. (Convulsions)” value is reported as 0 and the “Toxicity: LRR (Loss of righting reflex)” value worked out at 0. In series [2], the “relative Potency (molar basis)” value was 1. Also, in series [2] (setting [8]), the ED50 stood at 257 mg/kg. For the same molecule, in series [2] (mice), the “antiarrhythmic activity (in words)” value is reported as “did not show any outstanding properties”.
For `CCN(CC)CC(=O)Nc1cc(OC)c(OC)cc1Cc1nccc2ccccc12` [Compound 6], in series [1], the “Toxicity: Death (number of mice)” value is listed as 0, the “Toxicity: Ataxia (number of mice)” value is reported as 7, the “Toxicity: Con. (Convulsions)” value is given as 0 and the “Toxicity: LRR (Loss of righting reflex)” value was determined as 0.
As to `CCN(CC)CC(=O)Nc1c(CC2c3ccccc3CCN2C)ccc(OC)c1OC` (stereo not drawn) [Compound 7], the “toxicity (in words)” value in series [1] is on record as “comparable toxicity characteristics, as compound 1”. Moreover, in series [5], the “Toxicity: Ataxia (number of mice)” value was 0, the “Toxicity: Con. (Convulsions)” value is listed as 0, the “Toxicity: Death (number of mice)” value stood at 0 and the “Toxicity: LRR (Loss of righting reflex)” value came out at 0. Moreover, the “relative Potency (molar basis)” value in series [2] stood at 1. The ED50 in series [2] (setting [8]) is 160 mg/kg. For the same molecule, the “antiarrhythmic activity (in words)” value in series [2] (mice) is “essentially the same protection”.
On to `CCN(CC)CC(=O)Nc1c(C)cccc1C` [Lidocaine, 2-diethylamino-2',6'-acetoxylidide, reference compound], for which, in series [1], the “Toxicity: Death (number of mice)” value stood at 0. In addition, the “antiarrhythmic effectiveness (in words)” value in series [6] (intravenous and intramuscular) is “proved effective as an antiarrhythmic drug administered both intravenously and intramuscularly”. For the same molecule, the ED50 in series [2] was 62 mg/kg. The “antiarrhythmic activity (in words)” value in series [2] (mice) is “strong antiarrhythmic activity”.
As to `COc1ccc(Cc2nccc3cc(OC)c(OC)cc23)cc1OC` [Papaverine, reference compound], in series [1], the “Toxicity: Death (number of mice)” value is 0, the “Toxicity: Ataxia (number of mice)” value was found to be 2, the “Toxicity: Con. (Convulsions)” value amounted to 0 and the “Toxicity: LRR (Loss of righting reflex)” value is 0. Moreover, in series [1], the “toxicity (in words)” value was “some evidence of toxicity”. Further, the “cardiac effect / arrhythmia at clinical doses (in words)” value in series [6] (background, clinical use) is “doses required were also found to cause dangerous arrhythmias by depression of A-V and intraventricular conduction”. The “antiarrhythmic activity (in words)” value in series [2] (mice) is “only little antiarrhythmic activity”.
On to `CCNCC(=O)Nc1c(C)cccc1C` [monoethylglycinexylidide], for which the “contribution to convulsive symptoms of CNS toxicity (in words)” value in series [7] is reported as “appears to be the metabolite contributing to the production of the convulsive symptoms of central nervous system toxicity with high doses of lidocaine”.

The values above are taken from patent publication US4053603A, “Benzylisoquinoline derivatives, and use as anti-arrhythmic drugs” (Astra Pharmaceutical Products, Inc., priority 1976, dated 1977).
